Test results from patent US7319098B2, “1,3-dioxoisoindole derivatives having selective antagonism of T-type calcium channel” (Korea Institute of Science and Technology, priority 2006, dated 2008).

Target: T1, α1G T-type Ca2+ channels (Homo sapiens, UniProt O43497)
T1 construct: expressed in transfected cells; host or cells: HEK293 cells stably expressing α1G and Kir2.1
Experiment: Screening of activity against T-type calcium channel with FDSS6000 (fluorescence, KCl-induced [Ca2+]i increase)
Assay type: cell-based
Settings: 10 μM; HEK293 cells expressing α1G and Kir2.1; NA: Not Active; read-out: Inhibitory effect (%) of T-type calcium channel, Inhibition (%)
Procedure: Meanwhile, the antagonistic activity of the novel compound of Formula (1) herein against T-type calcium channel was tested as described below. The synthesized compounds were tested for the activity against T-type calcium channel with FDSS6000. Compounds with good activity were selected and IC50 values were exactly obtained by using electrophysiological whole cell patch clamp method. HEK293 cells which stably express both α1G and Kir2.1 subunits were grown in Dulbecco's modified Eagle's medium supplemented with 10% (v/v) fetal bovine serum, penicillin (100 U/mL), streptomycin (100 μg/mL), geneticin (500 μg/mL), and +puromycin (I μg/mL) at 37° C. in a humid atmosphere of 5% CO2 and 95% air. Cells were seeded into 96-well black wall clear bottom plates at a density of 4×10^4 cells/well and were used the next day for high-throughput screening (HTS) FDSS6000 assay. For FDSS6000 assay, cells were incubated for 60 min at room temperature with 5 μM fluo3/AM and 0.001% Pluronic F-127 in a HEPES-buffered solution composed of (in mM): 115 NaCl, 5.4 KCl, 0.8 MgCl2, 1.8 CaCl2, 20 HEPES, 13.8 glucose (pH 7.4). During the fluorescence-based FDSS6000 assay, cells in HEPES-buffered solution containing 10 mM CaCl2 were pretreated with a certain concentration of test compounds and then treated with high concentration of KCl ([…]). α1G T-type Ca^2+ channels were activated by using high concentration of KCl (70 mM) and the increase in [Ca^2+]i by KCl-induced depolarization was detected. During the whole procedure, cells were washed using the BIO-TEK 96-well washer. All data were collected and analyzed using FDSS6000 and related software (Hamamatsu, Japan). The IC50 results of examining the inhibitory effects of the compounds herein selected with FDSS6000 on the calcium influx through the T-type calcium channel are provided in TABLEs 1 and 2.

T1 sequence (O43497 whole entry): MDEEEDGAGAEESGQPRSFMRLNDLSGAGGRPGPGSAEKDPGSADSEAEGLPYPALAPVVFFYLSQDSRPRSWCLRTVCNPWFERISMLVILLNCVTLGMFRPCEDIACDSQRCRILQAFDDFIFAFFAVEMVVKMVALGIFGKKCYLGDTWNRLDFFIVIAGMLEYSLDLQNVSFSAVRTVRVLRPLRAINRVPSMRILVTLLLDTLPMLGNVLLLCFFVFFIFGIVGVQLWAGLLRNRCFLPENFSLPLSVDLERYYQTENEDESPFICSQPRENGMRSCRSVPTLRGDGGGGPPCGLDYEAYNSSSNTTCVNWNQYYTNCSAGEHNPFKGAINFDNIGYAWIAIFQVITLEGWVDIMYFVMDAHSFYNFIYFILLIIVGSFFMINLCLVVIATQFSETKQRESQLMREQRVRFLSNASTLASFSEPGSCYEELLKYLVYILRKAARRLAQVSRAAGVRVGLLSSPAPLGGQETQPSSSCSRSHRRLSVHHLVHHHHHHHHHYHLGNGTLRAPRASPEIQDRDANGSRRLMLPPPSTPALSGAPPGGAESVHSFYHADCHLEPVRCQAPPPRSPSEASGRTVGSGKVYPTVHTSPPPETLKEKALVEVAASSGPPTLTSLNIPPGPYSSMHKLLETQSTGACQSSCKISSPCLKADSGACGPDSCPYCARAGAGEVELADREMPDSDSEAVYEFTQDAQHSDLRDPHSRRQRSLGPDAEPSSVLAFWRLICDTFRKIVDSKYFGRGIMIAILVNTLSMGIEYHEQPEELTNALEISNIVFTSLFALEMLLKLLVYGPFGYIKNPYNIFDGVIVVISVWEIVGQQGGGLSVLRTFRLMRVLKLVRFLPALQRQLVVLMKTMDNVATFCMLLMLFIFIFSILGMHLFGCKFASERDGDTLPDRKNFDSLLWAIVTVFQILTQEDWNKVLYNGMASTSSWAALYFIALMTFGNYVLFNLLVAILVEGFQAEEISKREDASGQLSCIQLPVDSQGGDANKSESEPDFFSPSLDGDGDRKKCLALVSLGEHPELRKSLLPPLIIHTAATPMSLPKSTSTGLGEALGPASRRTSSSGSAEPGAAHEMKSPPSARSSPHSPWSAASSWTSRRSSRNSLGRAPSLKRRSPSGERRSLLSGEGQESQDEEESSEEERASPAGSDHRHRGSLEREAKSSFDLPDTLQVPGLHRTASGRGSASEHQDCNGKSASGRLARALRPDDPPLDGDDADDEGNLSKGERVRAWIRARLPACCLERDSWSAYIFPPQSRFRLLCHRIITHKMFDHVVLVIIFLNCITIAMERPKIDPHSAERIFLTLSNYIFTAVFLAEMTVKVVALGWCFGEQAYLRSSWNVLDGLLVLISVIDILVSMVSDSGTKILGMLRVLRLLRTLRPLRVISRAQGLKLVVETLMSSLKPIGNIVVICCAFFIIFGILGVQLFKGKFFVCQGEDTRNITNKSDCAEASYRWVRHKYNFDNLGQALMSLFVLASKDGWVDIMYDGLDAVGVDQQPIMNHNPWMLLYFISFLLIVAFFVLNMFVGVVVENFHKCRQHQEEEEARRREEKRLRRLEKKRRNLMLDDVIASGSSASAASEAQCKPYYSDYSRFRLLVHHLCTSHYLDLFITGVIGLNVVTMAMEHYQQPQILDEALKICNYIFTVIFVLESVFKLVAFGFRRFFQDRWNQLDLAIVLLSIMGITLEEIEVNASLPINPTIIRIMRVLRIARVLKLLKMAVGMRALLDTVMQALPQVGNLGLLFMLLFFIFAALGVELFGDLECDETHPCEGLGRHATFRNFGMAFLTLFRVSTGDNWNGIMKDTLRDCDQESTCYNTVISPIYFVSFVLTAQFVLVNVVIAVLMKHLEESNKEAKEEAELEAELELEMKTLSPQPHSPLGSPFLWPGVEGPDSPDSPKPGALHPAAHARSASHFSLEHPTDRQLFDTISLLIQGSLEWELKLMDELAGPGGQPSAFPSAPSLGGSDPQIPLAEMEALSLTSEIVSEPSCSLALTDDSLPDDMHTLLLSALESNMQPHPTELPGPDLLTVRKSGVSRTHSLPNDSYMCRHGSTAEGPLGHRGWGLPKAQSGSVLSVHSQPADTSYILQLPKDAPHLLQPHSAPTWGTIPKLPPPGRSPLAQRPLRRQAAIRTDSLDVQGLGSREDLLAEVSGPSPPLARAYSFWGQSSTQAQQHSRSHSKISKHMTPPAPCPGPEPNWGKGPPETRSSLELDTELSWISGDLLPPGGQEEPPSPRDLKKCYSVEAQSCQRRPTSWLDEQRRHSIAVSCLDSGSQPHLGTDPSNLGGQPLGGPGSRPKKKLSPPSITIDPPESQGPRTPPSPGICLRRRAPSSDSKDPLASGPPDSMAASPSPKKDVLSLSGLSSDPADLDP

SMILES | inhibition at 10 µM [%]
CC1CCCCN1CCCNC(=O)c1ccc2c(c1)C(=O)N(Cc1ccc(C#N)cc1)C2=O (centres unmarked) [Compound 130, 1-(3-{[2-(4-cyano-benzyl)-1,3-dioxo-2,3-dihydro-1H-isoindol-5-carbonyl]-amino}-propyl)-2-methyl-piperidinium chloride] | 9.1
Cc1cccc(CN2C(=O)c3ccc(C(=O)NCCN4CCOCC4)cc3C2=O)c1 [Compound 103, 4-(2-{[2-(3-methyl-benzyl)-1,3-dioxo-2,3-dihydro-1H-isoindol-5-carbonyl]-amino}-ethyl)-4-morpholinium chloride] | 21.1
O=C(NCCCN1CCOCC1)c1ccc2c(c1)C(=O)N(Cc1ccc(Cl)cc1)C2=O [Compound 92, 4-(3-{[2-(4-chloro-benzyl)-1,3-dioxo-2,3-dihydro-1H-isoindol-5-carbonyl]-amino}-propyl)-4-morpholinium chloride] | 29.9
O=C(NCCN1CCCCC1)c1ccc2c(c1)C(=O)N(Cc1ccccc1Cl)C2=O [Compound 75, 1-(2-{[2-(2-chloro-benzyl)-1,3-dioxo-2,3-dihydro-1H-isoindol-5-carbonyl]-amino}-ethyl)-piperidinium chloride] | 33.6
Cc1cccc(N2C(=O)c3ccc(C(=O)NCCCN4CCOCC4)cc3C2=O)c1 [Compound 38, 4-{3-[(1,3-dioxo-2-m-tolyl-2,3-dihydro-1H-isoindol-5-carbonyl)-amino]-propyl}-4-morpholinium chloride] | 4.2
Cc1ccc(CN2C(=O)c3ccc(C(=O)NCCCN4CCOCC4)cc3C2=O)cc1 [Compound 110, 4-(3-{[2-(4-methyl-benzyl)-1,3-dioxo-2,3-dihydro-1H-isoindol-5-carbonyl]-amino}-propyl)-4-morpholinium chloride] | 9.1

Other lines, results leading:

inhibition at 10 µM [%] | SMILES
15.7 | Cc1ccccc1CN1C(=O)c2ccc(C(=O)NCCN3CCCC3)cc2C1=O [Compound 95, 1-(2-{[2-(2-methyl-benzyl)-1,3-dioxo-2,3-dihydro-1H-isoindol-5-carbonyl]-amino}-ethyl)-pyrrolidinium chloride]
2 | Cc1ccc(N2C(=O)c3ccc(C(=O)NCCN4CCCC4)cc3C2=O)cc1 [Compound 41, 1-{2-[(1,3-dioxo-2-p-tolyl-2,3-dihydro-1H-isoindol-5-carbonyl)-amino]-ethyl}-pyrrolidinium chloride]
29.8 | O=C(NCCN1CCCC1)c1ccc2c(c1)C(=O)N(Cc1ccc(Cl)cc1)C2=O [Compound 89, 1-(2-{[2-(4-chloro-benzyl)-1,3-dioxo-2,3-dihydro-1H-isoindol-5-carbonyl]-amino}-ethyl)-pyrrolidinium chloride]
15.5 | Cc1cccc(CN2C(=O)c3ccc(C(=O)NCCCN4CCOCC4)cc3C2=O)c1 [Compound 104, 4-(3-{[2-(3-methyl-benzyl)-1,3-dioxo-2,3-dihydro-1H-isoindol-5-carbonyl]-amino}-propyl)-4-morpholinium chloride]

Same assay, conditions: 100 μM; HEK293 cells expressing α1G and Kir2.1; read-out: Inhibitory effect (%) of T-type calcium channel, Inhibition (%)

SMILES | inhibition at 100 µM [%]
COc1ccc(CN2C(=O)c3ccc(C(=O)NCCN4CCOCC4)cc3C2=O)cc1 [Compound 127, 4-(2-{[2-(4-methoxy-benzyl)-1,3-dioxo-2,3-dihydro-1H-isoindol-5-carbonyl]-amino}-ethyl)-4-morpholinium chloride] | 51.7
O=C(NCCN1CCOCC1)c1ccc2c(c1)C(=O)N(Cc1ccc(F)cc1)C2=O [Compound 72, 4-(2-{[2-(4-fluoro-benzyl)-1,3-dioxo-2,3-dihydro-1H-isoindol-5-carbonyl]-amino}-ethyl)-4-morpholinium chloride] | 46.4
O=C(NCCN1CCCCC1)c1ccc2c(c1)C(=O)N(c1ccccc1F)C2=O [Compound 7, 1-(2-{[2-(2-fluoro-phenyl)-1,3-dioxo-2,3-dihydro-1H-isoindol-5-carbonyl]-amino}-ethyl)-piperidinium chloride] | 40.6
Cc1ccccc1N1C(=O)c2ccc(C(=O)NCCN3CCCC3)cc2C1=O [Compound 30, 1-{2-[(1,3-dioxo-2-o-tolyl-2,3-dihydro-1H-isoindol-5-carbonyl)-amino]-ethyl}-pyrrolidinium chloride] | 33.6
COc1ccccc1CN1C(=O)c2ccc(C(=O)NCCN3CCCCC3)cc2C1=O [Compound 111, 1-(2-{[2-(2-methoxy-benzyl)-1,3-dioxo-2,3-dihydro-1H-isoindol-5-carbonyl]-amino}-ethyl)-piperidinium chloride] | 69.5
CC1CCCCN1CCCNC(=O)c1ccc2c(c1)C(=O)N(c1ccccc1F)C2=O (centres unmarked) [Compound 8, 1-(3-{[2-(2-fluoro-phenyl)-1,3-dioxo-2,3-dihydro-1H-isoindol-5-carbonyl]-amino}-propyl)-2-methyl-piperidinium chloride] | 36.8
O=C(NCCCN1CCCC1)c1ccc2c(c1)C(=O)N(c1cccc(F)c1)C2=O [Compound 16, 1-(3-{[2-(3-fluoro-phenyl)-1,3-dioxo-2,3-dihydro-1H-isoindol-5-carbonyl]-amino}-propyl)-pyrrolidinium chloride] | 30
COc1cccc(CN2C(=O)c3ccc(C(=O)NCCN4CCOCC4)cc3C2=O)c1 [Compound 121, 4-(2-{[2-(3-methoxy-benzyl)-1,3-dioxo-2,3-dihydro-1H-isoindol-5-carbonyl]-amino}-ethyl)-4-morpholinium chloride] | 57.6
O=C(NCCN1CCCC1)c1ccc2c(c1)C(=O)N(c1cccc(F)c1)C2=O [Compound 15, 1-(2-{[2-(3-fluoro-phenyl)-1,3-dioxo-2,3-dihydro-1H-isoindol-5-carbonyl]-amino}-ethyl)-pyrrolidinium chloride] | 25.8

The remaining lines, values ahead:

inhibition at 100 µM [%] | SMILES
44.7 | CC1CCCCN1CCCNC(=O)c1ccc2c(c1)C(=O)N(c1ccc(F)cc1)C2=O (centres unmarked) [Compound 20, 1-(3-{[2-(4-fluoro-phenyl)-1,3-dioxo-2,3-dihydro-1H-isoindol-5-carbonyl]-amino}-propyl)-2-methyl-piperidinium chloride]
65.5 | O=C(NCCN1CCCC1)c1ccc2c(c1)C(=O)N(Cc1ccccc1F)C2=O [Compound 57, 1-(2-{[2-(2-fluoro-benzyl)-1,3-dioxo-2,3-dihydro-1H isoindol-5-carbonyl]-amino}-ethyl)-pyrrolidinium chloride]
56.6 | COc1cccc(CN2C(=O)c3ccc(C(=O)NCCCN4CCOCC4)cc3C2=O)c1 [Compound 122, 4-(3-{[2-(3-methoxy-benzyl)-1,3-dioxo-2,3-dihydro-1H-isoindol-5-carbonyl]-amino}-propyl)-4-morpholinium chloride]
53 | COc1ccccc1CN1C(=O)c2ccc(C(=O)NCCCN3CCCC3)cc2C1=O [Compound 114, 1-(3-{[2-(2-methoxy-benzyl)-1,3-dioxo-2,3-dihydro-1H-isoindol-5-carbonyl]-amino}-propyl)-pyrrolidinium chloride]
22.7 | O=C(NCCN1CCOCC1)c1ccc2c(c1)C(=O)N(c1ccccc1F)C2=O [Compound 11, 4-(2-{[2-(2-fluoro-phenyl)-1,3-dioxo-2,3-dihydro-1H-isoindol-5-carbonyl]-amino}-ethyl)-4-morpholinium chloride]
43 | O=C(NCCN1CCCCC1)c1ccc2c(c1)C(=O)N(c1cccc(F)c1)C2=O [Compound 13, 1-(2-{[2-(3-fluoro-phenyl)-1,3-dioxo-2,3-dihydro-1H-isoindol-5-carbonyl]-amino}-ethyl)-piperidinium chloride]
44.2 | CC1CCCCN1CCCNC(=O)c1ccc2c(c1)C(=O)N(c1cccc(F)c1)C2=O (centres unmarked) [Compound 14, 1-(3-{[2-(3-fluoro-phenyl)-1,3-dioxo-2,3-dihydro-1H-isoindol-5-carbonyl]-amino}-propyl)-2-methyl-piperidinium chloride]
65.9 | O=C(NCCCN1CCCC1)c1ccc2c(c1)C(=O)N(Cc1cccc(F)c1)C2=O [Compound 64, 1-(3-{[2-(3-fluoro-benzyl)-1,3-dioxo-2,3-dihydro-1H-isoindol-5-carbonyl]-amino}-propyl)-pyrrolidinium chloride]
33.8 | CC1CCCCN1CCCNC(=O)c1ccc2c(c1)C(=O)N(c1ccccc1)C2=O (centres unmarked) [Compound 2, 1-{3-[(1,3-dioxo-2-phenyl-2,3-dihydro-1H-isoindol-5-carbonyl)-amino]-propyl}-2-methyl-piperidinium chloride]
63.7 | COc1cccc(CN2C(=O)c3ccc(C(=O)NCCCN4CCCC4)cc3C2=O)c1 [Compound 120, 1-(3-{[2-(3-methoxy-benzyl)-1,3-dioxo-2,3-dihydro-1H-isoindol-5-carbonyl]-amino}-propyl)-pyrrolidinium chloride]
